Key:
[1] = biological target: Rho-associated protein kinase 1 (Homo sapiens, UniProt Q13464); test: Inhibition of human recombinant ROCK1
[2] = biological target: Rho-associated protein kinase 2 (Homo sapiens, UniProt O75116); test: Inhibition of human recombinant ROCK2
Cytochrome P450 1A2 = biological target: T1, Cytochrome P450 1A2 (Homo sapiens, UniProt P05177); test: Inhibition of CYP1A2; assay type: ADME
T1 sequence (P05177 whole entry): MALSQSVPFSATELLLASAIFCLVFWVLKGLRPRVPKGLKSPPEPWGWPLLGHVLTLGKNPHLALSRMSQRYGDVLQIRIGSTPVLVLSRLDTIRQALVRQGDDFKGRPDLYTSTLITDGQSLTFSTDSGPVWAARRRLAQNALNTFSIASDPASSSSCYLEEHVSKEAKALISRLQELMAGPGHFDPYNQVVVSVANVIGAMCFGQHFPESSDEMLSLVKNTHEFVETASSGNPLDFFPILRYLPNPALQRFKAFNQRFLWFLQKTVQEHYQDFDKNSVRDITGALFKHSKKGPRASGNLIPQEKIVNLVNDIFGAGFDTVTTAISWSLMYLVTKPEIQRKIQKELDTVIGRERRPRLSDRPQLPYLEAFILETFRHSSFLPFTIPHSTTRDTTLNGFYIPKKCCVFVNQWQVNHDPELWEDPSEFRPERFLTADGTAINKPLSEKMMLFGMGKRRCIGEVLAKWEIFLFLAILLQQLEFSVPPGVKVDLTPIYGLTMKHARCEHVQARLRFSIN

Cytochrome P450 2C8 = biological target: T2, Cytochrome P450 2C8 (Homo sapiens, UniProt P10632); test: Inhibition of CYP2C8; assay type: ADME
T2 sequence (P10632 whole entry): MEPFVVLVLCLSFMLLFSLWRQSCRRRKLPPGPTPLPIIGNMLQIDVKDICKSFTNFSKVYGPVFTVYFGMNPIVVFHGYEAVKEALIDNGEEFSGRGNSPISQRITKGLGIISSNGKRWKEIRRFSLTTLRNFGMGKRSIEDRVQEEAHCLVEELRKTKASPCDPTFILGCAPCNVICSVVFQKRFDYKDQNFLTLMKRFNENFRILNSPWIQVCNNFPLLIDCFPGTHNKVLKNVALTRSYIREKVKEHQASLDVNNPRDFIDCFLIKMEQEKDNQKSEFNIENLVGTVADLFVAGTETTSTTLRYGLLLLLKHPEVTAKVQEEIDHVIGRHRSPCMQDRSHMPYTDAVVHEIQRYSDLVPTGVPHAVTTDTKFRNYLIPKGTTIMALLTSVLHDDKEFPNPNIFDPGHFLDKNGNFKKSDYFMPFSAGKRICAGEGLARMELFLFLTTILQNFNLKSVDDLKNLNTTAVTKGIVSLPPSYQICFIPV

Cytochrome P450 3A4 = Cytochrome P450 3A4 (Homo sapiens, UniProt P08684); test: Inhibition of CYP3A4; assay type: ADME
Chain of Cytochrome P450 3A4 (P08684 whole entry): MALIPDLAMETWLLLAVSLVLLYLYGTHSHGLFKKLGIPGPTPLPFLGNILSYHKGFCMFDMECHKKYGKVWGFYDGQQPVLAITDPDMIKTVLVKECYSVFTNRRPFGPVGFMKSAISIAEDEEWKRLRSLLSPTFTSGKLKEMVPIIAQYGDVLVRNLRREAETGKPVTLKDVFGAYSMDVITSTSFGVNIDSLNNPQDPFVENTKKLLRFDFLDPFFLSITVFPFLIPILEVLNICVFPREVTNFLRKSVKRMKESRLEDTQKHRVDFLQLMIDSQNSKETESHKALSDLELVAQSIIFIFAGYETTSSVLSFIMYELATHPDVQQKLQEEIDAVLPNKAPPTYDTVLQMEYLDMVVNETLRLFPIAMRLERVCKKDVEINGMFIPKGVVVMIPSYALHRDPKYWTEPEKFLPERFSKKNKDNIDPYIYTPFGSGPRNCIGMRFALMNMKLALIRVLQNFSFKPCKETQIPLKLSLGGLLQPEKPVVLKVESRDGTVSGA

[3] = Metabolic stability in human liver microsomes after 1 hr; assay type: ADME, Microsome; details: read-out: Stability
Cytochrome P450 2C19 = Cytochrome P450 2C19 (Homo sapiens, UniProt P33261); test: Inhibition of CYP2C19; assay type: ADME
Chain of Cytochrome P450 2C19 (P33261 whole entry): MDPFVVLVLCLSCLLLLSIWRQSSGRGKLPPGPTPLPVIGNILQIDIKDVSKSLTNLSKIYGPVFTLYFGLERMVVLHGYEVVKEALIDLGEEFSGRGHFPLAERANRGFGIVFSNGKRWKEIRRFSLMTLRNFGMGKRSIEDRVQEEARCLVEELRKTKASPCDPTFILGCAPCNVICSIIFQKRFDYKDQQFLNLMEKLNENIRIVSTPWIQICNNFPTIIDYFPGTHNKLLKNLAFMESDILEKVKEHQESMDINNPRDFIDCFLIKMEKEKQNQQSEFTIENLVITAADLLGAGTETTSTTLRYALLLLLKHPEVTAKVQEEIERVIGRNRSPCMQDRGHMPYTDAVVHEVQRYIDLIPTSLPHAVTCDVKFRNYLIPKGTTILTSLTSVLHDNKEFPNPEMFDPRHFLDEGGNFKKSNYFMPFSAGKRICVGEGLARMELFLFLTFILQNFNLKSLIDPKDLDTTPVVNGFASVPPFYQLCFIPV

Cytochrome P450 2B6 = biological target: T3, Cytochrome P450 2B6 (Homo sapiens, UniProt P20813); test: Inhibition of CYP2B6; assay type: ADME
T3 sequence (P20813 whole entry): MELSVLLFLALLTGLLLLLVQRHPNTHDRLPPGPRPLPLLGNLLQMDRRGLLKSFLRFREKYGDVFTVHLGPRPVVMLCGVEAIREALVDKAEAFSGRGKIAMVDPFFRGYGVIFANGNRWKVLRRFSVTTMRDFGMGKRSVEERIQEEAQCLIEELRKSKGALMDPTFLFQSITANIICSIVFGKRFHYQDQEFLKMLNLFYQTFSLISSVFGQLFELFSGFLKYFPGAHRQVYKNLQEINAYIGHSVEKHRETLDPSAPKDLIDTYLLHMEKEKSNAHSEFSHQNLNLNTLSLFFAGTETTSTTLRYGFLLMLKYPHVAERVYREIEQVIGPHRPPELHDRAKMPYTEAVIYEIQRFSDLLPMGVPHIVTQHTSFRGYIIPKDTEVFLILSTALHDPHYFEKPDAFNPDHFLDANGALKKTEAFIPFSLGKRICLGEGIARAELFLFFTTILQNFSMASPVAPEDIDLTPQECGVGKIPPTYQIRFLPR

Cytochrome P450 2D6 = Cytochrome P450 2D6 (Homo sapiens, UniProt P10635); test: Inhibition of CYP2D6; assay type: ADME
Chain of Cytochrome P450 2D6 (P10635 whole entry): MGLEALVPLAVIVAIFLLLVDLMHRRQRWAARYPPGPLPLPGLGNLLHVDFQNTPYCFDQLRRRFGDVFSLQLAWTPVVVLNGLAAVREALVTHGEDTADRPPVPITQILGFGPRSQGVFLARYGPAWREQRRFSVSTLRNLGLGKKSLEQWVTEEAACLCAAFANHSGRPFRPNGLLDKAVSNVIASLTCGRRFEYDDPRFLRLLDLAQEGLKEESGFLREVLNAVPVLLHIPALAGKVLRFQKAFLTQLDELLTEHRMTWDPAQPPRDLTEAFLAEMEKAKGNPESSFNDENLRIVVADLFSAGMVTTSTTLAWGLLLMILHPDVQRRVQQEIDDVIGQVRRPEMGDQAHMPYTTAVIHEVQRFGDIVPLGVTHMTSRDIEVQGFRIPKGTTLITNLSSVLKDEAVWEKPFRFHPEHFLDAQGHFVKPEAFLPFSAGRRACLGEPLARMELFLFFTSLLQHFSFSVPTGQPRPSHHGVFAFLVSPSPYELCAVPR

Chain of Rho-associated protein kinase 1 (Q13464 whole entry): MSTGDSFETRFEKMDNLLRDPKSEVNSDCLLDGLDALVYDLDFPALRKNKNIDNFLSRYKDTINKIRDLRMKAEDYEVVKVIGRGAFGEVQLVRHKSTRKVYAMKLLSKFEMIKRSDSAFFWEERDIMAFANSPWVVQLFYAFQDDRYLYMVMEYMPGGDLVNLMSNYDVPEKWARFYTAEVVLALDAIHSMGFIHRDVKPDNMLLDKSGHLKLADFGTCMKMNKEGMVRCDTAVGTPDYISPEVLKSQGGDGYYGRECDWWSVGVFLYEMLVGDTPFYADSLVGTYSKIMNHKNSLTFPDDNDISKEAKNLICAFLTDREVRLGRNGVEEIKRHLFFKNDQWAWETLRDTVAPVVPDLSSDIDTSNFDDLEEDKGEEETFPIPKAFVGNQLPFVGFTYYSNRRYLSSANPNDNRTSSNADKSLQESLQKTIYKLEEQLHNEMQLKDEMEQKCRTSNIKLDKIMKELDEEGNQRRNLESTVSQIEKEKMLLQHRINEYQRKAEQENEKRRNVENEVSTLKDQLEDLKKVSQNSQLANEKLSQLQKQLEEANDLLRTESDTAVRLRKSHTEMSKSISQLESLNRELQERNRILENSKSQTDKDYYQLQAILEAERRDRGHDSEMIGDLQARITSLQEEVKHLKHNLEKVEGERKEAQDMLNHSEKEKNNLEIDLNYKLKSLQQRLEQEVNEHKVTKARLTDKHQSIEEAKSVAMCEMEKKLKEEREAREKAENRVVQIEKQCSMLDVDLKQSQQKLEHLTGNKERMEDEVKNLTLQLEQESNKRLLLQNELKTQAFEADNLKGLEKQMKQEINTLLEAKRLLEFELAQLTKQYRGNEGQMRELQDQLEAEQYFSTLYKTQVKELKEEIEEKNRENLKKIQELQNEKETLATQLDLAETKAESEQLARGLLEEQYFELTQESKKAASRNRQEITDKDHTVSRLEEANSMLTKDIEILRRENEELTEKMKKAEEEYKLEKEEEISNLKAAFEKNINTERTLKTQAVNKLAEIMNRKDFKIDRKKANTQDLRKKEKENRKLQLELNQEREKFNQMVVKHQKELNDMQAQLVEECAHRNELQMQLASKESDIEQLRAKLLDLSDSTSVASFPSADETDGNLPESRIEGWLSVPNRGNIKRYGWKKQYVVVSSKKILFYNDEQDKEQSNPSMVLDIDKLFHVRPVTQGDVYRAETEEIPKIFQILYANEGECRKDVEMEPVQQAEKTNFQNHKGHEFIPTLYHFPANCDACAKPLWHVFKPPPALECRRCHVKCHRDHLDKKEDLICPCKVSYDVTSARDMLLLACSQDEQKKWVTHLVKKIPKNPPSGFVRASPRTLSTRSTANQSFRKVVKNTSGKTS
Chain of Rho-associated protein kinase 2 (O75116 whole entry): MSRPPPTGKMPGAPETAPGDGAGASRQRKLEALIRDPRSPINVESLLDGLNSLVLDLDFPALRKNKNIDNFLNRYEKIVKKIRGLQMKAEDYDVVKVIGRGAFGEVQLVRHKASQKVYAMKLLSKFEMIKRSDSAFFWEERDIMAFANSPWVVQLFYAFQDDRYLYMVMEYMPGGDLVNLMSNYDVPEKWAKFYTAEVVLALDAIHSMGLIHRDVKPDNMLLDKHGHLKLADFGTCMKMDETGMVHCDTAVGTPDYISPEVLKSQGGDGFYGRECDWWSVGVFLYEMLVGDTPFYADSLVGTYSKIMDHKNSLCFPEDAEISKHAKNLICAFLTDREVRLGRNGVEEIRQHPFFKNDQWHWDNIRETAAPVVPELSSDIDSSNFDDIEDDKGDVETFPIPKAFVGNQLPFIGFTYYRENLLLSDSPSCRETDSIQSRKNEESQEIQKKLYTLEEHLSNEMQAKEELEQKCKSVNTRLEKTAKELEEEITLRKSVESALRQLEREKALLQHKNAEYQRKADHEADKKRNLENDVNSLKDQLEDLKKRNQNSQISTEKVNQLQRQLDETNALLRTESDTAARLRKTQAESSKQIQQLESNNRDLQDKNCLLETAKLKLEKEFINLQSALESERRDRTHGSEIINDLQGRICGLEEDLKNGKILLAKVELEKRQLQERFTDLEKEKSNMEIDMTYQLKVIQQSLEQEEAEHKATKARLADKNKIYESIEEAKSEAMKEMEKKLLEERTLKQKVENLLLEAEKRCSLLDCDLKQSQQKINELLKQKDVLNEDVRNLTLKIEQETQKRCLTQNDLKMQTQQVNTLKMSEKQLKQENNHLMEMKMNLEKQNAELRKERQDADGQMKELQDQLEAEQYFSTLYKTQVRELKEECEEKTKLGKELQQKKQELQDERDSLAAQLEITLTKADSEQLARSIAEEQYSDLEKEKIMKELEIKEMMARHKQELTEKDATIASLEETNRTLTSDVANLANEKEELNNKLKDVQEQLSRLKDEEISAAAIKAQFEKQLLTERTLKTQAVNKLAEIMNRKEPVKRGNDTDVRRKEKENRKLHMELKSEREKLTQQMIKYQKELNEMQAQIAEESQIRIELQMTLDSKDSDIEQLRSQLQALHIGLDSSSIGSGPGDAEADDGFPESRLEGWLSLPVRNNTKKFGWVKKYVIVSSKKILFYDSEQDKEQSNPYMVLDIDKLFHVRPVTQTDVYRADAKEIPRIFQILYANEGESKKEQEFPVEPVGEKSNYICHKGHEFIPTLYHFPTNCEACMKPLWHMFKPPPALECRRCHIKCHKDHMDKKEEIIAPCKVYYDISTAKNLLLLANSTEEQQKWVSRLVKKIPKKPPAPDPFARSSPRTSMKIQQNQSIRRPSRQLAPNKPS

Compound | IC50 [1] [nM] | IC50 [2] [nM] | further results
Nc1ncc(-c2ccncc2)nc1N1CCN(CCO)CC1 | 4600 | 2500 | 
CN1CCCN(c2nc(-c3ccncc3)cnc2N2CCCC2)CC1 | 6000 | 330 | 
CN1CCCN(c2nc(-c3ccncc3)cnc2N2CCOCC2)CC1 | 68000 | 6300 | 
CN1CCCN(c2nc(-c3ccc4cn[nH]c4c3)cnc2N)CC1 | > 10000 | > 10000 | 
CN1CCCN(c2nc(-c3ccnc4[nH]ccc34)cnc2N)CC1 | 1500 | 530 | 
c1cc(-c2cnc(N3CCCC3)c(N3CCNCC3)n2)c2cc[nH]c2n1 | 34 | 17 | 
OCCN1CCN(c2nc(-c3ccncc3)cnc2N2CCCC2)CC1 | 300 | 78 | Activity (Cytochrome P450 1A2): > 2 µM; Activity (Cytochrome P450 2C8): > 2 µM; Activity (Cytochrome P450 3A4): > 2 µM; remaining at 1 h [3]: 100%; Activity (Cytochrome P450 2C19): > 2 µM; Activity (Cytochrome P450 2B6): > 2 µM; Activity (Cytochrome P450 2D6): > 2 µM
CN(C)c1ncc(-c2ccncc2)nc1N1CCN(CCO)CC1 | 1400 | 300 | 
CN1CCCN(c2nc(-c3cccc4[nH]ncc34)cnc2N)CC1 | 9600 | 2500 | 
COCCNc1ncc(-c2ccncc2)nc1N1CCCN(C)CC1 | 10000 | 52000 | 
CN1CCCN(c2nc(-c3ccncc3)cnc2NCCO)CC1 | 42000 | 3000 | 
CCN(CC)c1ncc(-c2ccncc2)nc1N1CCCN(C)CC1 | 2600 | 6700 | 
CN1CCCN(c2nc(-c3ccncc3)cnc2N(C)C)CC1 | 6500 | 1700 | 
Cc1cnccc1-c1cnc(N)c(N2CCCN(C)CC2)n1 | 120000 | 58000 | 
c1cc(-c2cnc(N3CCCC3)c(N3CCCNCC3)n2)c2cc[nH]c2n1 | 170 |  | 
CN1CCCN(c2nc(-c3cc[nH]n3)cnc2N)CC1 | 37000 | 2900 | 
c1cc(-c2cnc(N3CCCC3)c(N3CCCNCC3)n2)ccn1 | 320 | 39 | 
CN1CCCN(c2nc(-c3ccnc(N)c3)cnc2N)CC1 | 25000 | 53000 | 
CNCC1CCN(c2nc(-c3ccncc3)cnc2N2CCCC2)CC1 | 150 | 49 | 
CN1CCCN(c2nc(-c3ccncc3)cnc2N)CC1 | 4600 | 2500 | 
COCCN(C)c1ncc(-c2ccncc2)nc1N1CCCN(C)CC1 | 48000 | 45000 | 
NC1CCN(c2nc(-c3ccnc4[nH]ccc34)cnc2N2CCCC2)CC1 | 300 | 89 | 
Cc1cc(-c2cnc(N)c(N3CCCN(C)CC3)n2)ccn1 | > 100000 | > 100000 | 
CNc1ncc(-c2ccncc2)nc1N1CCCN(C)CC1 | 6900 | 2400 | 
c1cc(-c2cnc(N3CCCC3)c(N3CCNCC3)n2)ccn1 | 610 | 62 | 
CN1CCCN(c2nc(-c3ccncc3)cnc2N2CCCCC2)CC1 | 18000 | 560 | 
CN1CCCN(c2nc(-c3ccc4[nH]ncc4c3)cnc2N)CC1 | 2300 | 950 | 
NC1CCN(c2nc(-c3ccncc3)cnc2N2CCCC2)CC1 | 290 | 62 | 
CNC1CCN(c2nc(-c3ccncc3)cnc2N2CCCC2)CC1 | 1800 | 250 | 
NCC1CCN(c2nc(-c3ccncc3)cnc2N2CCCC2)CC1 | 130 | 28 | 

From ChEMBL document CHEMBL1157736, “2,3-Diaminopyrazines as Rho kinase inhibitors” (Bioorg Med Chem Lett, 2010)
